Among the data in ChEMBL document CHEMBL2073969, “Increased renal expression of bilirubin glucuronide transporters in a rat model of obstructive jaundice” (Am J Physiol Gastrointest Liver Physiol, 2002) are Activity values, retold here.

In this series the target is ATP-binding cassette sub-family C member 2 (Homo sapiens, UniProt Q92887). Briefly: TP_TRANSPORTER: RT-PCR in renal proximal tubular epithelial cells. Type of series: functional, tissue-based, Kidney. Conditions: epithelial cell.

Each structure is given as a SMILES string.

ATP-binding cassette sub-family C member 2, sequence (Q92887 whole entry): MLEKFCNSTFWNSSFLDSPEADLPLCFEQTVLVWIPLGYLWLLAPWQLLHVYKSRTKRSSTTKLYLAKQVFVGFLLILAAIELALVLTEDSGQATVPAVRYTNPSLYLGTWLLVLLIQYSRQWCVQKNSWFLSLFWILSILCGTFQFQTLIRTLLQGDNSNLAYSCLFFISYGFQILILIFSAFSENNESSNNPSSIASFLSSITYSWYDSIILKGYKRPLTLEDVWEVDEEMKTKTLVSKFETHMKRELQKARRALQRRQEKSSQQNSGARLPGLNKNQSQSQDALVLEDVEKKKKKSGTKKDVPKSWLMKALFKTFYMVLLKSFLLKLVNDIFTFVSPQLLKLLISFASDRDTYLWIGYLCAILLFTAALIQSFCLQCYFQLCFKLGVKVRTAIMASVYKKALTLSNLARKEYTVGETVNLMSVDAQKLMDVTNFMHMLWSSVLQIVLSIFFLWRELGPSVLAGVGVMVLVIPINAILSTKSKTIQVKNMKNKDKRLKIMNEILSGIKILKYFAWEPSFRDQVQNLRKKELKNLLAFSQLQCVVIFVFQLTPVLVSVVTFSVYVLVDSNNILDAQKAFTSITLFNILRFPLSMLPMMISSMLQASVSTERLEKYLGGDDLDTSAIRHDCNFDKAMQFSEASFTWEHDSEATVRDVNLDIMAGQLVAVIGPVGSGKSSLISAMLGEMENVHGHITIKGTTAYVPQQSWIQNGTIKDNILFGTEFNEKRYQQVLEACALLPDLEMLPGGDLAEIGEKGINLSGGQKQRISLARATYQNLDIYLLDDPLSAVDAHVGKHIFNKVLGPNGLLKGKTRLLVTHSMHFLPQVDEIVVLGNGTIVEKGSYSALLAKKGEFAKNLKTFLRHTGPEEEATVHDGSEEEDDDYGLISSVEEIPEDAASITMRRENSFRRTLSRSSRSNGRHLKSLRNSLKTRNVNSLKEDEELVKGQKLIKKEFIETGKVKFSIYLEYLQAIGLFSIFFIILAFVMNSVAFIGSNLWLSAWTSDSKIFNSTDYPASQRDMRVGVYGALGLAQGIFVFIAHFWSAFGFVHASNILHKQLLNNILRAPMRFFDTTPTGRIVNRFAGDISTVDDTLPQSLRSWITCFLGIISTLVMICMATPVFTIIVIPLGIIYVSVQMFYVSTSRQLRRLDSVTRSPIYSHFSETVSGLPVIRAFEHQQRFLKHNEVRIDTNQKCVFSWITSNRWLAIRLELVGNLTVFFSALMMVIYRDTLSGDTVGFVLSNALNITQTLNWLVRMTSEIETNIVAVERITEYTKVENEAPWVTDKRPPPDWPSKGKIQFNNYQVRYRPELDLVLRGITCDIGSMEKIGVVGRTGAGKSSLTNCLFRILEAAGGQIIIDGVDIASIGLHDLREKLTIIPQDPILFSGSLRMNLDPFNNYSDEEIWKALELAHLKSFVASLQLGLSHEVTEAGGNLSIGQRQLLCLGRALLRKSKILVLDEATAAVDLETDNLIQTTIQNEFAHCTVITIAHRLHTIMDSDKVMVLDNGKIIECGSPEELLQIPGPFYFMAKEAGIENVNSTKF

With `C[C@H](CCC(=O)NCCS(=O)(=O)O)[C@H]1CC[C@H]2[C@@H]3CC[C@@H]4C[C@H](O)CC[C@]4(C)[C@H]3CC[C@]12C` [TAUROLITHOCHOLIC ACID], the Activity entry is “inducer [+]”.
For `C=CC1=C(C)/C(=C/c2[nH]c(Cc3[nH]c(/C=C4\NC(=O)C(C)=C4C=C)c(C)c3CCC(=O)NCCS(=O)(=O)O)c(CCC(=O)NCCS(=O)(=O)O)c2C)NC1=O` [BILIRUBIN DITAURATE] the value was “inducer [+]”.
